{"source": "ChEMBL document CHEMBL1629484", "about": "“1,2-diamino-ethane-substituted-6,7,8,9-tetrahydro-5H-pyrimido[4,5-d]azepines as TRPV1 antagonists with improved properties” (Bioorg Med Chem Lett, 2010)"}
{"target": "Transient receptor potential cation channel subfamily V member 1 (Rattus norvegicus, UniProt O35433)", "sequence (O35433 whole entry)": "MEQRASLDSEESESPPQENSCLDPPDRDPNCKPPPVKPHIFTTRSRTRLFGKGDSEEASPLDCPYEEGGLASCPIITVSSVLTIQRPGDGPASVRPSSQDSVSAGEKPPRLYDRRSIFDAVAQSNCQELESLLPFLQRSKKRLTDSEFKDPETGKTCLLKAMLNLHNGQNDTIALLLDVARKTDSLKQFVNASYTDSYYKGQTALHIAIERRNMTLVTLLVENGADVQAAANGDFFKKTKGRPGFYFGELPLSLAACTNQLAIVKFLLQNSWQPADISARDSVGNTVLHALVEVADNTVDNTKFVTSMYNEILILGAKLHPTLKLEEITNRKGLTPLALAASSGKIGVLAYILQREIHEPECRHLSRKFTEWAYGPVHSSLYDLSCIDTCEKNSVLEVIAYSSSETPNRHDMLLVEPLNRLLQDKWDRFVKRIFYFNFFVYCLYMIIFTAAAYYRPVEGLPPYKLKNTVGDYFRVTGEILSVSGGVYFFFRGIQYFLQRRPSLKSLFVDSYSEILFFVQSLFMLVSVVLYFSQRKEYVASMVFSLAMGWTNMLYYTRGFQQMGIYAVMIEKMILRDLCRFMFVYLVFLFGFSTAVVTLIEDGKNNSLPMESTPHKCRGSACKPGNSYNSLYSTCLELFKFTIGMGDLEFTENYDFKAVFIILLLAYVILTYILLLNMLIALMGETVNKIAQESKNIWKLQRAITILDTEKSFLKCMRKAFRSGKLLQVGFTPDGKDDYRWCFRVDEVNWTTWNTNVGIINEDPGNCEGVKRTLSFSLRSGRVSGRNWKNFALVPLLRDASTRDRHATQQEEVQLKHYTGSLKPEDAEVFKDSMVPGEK", "test": "Antagonist activity at rat TRPV1 expressed in HEK293 cells assessed as inhibition of capsaicin-induced intracellular Ca2+ level by FLIPR assay", "assay_type": "functional, cell-based", "units": {"IC50": "nM"}}
{"smiles": "CN1CCN(c2nc3c(c(Nc4ccc(C(F)(F)F)cc4)n2)CCN(c2ncccc2C(F)(F)F)CC3)CC1", "IC50": 506}
{"smiles": "CN(C)CCN1CCN(c2nc3c(c(Nc4ccc(C(F)(F)F)cc4)n2)CCN(c2ncccc2C(F)(F)F)CC3)CC1", "IC50": 2600}
{"smiles": "CN(c1nc2c(c(Nc3ccc(C(F)(F)F)cc3)n1)CCN(c1ncccc1C(F)(F)F)CC2)C1CCCNC1", "note": "(stereo unspecified)", "IC50": 1540}
{"smiles": "CN(C)CCN(C)c1nc2c(c(Nc3ccc(C(F)(F)F)cc3)n1)CCN(c1ncccc1C(F)(F)F)CC2", "IC50": 4450}
{"smiles": "FC(F)(F)c1ccc(Nc2nc(NC3CCCNC3)nc3c2CCN(c2ncccc2C(F)(F)F)CC3)cc1", "note": "(stereo unspecified)", "IC50": "> 5000"}
{"smiles": "CNC1CCN(c2nc3c(c(Nc4ccc(C(F)(F)F)cc4)n2)CCN(c2ncccc2C(F)(F)F)CC3)C1", "note": "(stereo unspecified)", "IC50": "> 5000"}
{"smiles": "CN1CCCCC1CNc1nc2c(c(Nc3ccc(C(F)(F)F)cc3)n1)CCN(c1ncccc1C(F)(F)F)CC2", "note": "(stereo unspecified)", "IC50": 2280}
{"smiles": "COCCN1CCN(c2nc3c(c(Nc4ccc(C(F)(F)F)cc4)n2)CCN(c2ncccc2C(F)(F)F)CC3)CC1", "IC50": 207}
{"target": "Transient receptor potential cation channel subfamily V member 1 (Homo sapiens, UniProt Q8NER1)", "sequence (Q8NER1 whole entry)": "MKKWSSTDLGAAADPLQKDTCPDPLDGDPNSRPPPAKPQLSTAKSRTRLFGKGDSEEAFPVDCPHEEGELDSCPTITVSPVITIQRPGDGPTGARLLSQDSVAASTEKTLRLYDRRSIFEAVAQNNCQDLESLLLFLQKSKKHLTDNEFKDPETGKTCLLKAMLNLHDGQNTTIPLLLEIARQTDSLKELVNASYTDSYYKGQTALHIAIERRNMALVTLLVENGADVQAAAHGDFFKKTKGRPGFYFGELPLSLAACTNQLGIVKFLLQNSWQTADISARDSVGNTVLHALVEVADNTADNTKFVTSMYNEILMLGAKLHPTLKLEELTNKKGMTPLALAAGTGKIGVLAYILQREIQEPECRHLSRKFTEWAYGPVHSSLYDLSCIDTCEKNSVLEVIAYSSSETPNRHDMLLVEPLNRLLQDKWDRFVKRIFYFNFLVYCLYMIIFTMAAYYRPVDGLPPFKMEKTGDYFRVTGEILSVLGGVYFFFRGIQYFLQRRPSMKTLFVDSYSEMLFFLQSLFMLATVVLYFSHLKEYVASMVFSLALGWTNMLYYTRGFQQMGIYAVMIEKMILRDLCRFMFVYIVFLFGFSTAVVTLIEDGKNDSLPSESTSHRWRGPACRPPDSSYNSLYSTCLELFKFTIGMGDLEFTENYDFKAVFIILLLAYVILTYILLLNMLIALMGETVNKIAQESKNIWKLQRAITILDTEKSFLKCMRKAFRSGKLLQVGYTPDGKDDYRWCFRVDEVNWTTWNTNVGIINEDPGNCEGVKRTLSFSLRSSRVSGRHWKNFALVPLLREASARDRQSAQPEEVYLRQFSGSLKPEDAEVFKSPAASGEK", "test": "Antagonist activity at human TRPV1 expressed in HEK293 cells assessed as inhibition of capsaicin-induced intracellular Ca2+ level by FLIPR assay", "assay_type": "functional, cell-based", "units": {"IC50": "nM"}}
{"smiles": "CN(C)CCN1CCN(c2nc3c(c(Nc4ccc(C(F)(F)F)cc4)n2)CCN(c2ncccc2C(F)(F)F)CC3)CC1", "IC50": 2000}
{"smiles": "CN(c1nc2c(c(Nc3ccc(C(F)(F)F)cc3)n1)CCN(c1ncccc1C(F)(F)F)CC2)C1CCCNC1", "note": "(stereo unspecified)", "IC50": 3600}
{"smiles": "CN(C)CCN(C)c1nc2c(c(Nc3ccc(C(F)(F)F)cc3)n1)CCN(c1ncccc1C(F)(F)F)CC2", "IC50": 2670}
{"smiles": "FC(F)(F)c1ccc(Nc2nc(NC3CCCNC3)nc3c2CCN(c2ncccc2C(F)(F)F)CC3)cc1", "note": "(stereo unspecified)", "IC50": "> 5000"}
{"smiles": "CNC1CCN(c2nc3c(c(Nc4ccc(C(F)(F)F)cc4)n2)CCN(c2ncccc2C(F)(F)F)CC3)C1", "note": "(stereo unspecified)", "IC50": 2790}
{"smiles": "CN1CCCCC1CNc1nc2c(c(Nc3ccc(C(F)(F)F)cc3)n1)CCN(c1ncccc1C(F)(F)F)CC2", "note": "(stereo unspecified)", "IC50": 1760}
{"smiles": "COCCN1CCN(c2nc3c(c(Nc4ccc(C(F)(F)F)cc4)n2)CCN(c2ncccc2C(F)(F)F)CC3)CC1", "IC50": 65}
{"test_system": "not listed separately", "test": "Aqueous equilibrium solubility of compound in simulated intestinal fluid at pH 6.8", "assay_type": "physicochemical", "units": {"solubility thermodynamic": "µg/mL"}}
{"smiles": "CN1CCN(c2nc3c(c(Nc4ccc(C(F)(F)F)cc4)n2)CCN(c2ncccc2C(F)(F)F)CC3)CC1", "solubility thermodynamic": 193}
{"smiles": "CN(C)CCN1CCN(c2nc3c(c(Nc4ccc(C(F)(F)F)cc4)n2)CCN(c2ncccc2C(F)(F)F)CC3)CC1", "solubility thermodynamic": "> 243"}
{"smiles": "CN(c1nc2c(c(Nc3ccc(C(F)(F)F)cc3)n1)CCN(c1ncccc1C(F)(F)F)CC2)C1CCCNC1", "note": "(stereo unspecified)", "solubility thermodynamic": 211}
{"smiles": "CN(C)CCN(C)c1nc2c(c(Nc3ccc(C(F)(F)F)cc3)n1)CCN(c1ncccc1C(F)(F)F)CC2", "solubility thermodynamic": 210}
{"smiles": "FC(F)(F)c1ccc(Nc2nc(NC3CCCNC3)nc3c2CCN(c2ncccc2C(F)(F)F)CC3)cc1", "note": "(stereo unspecified)", "solubility thermodynamic": 203}
{"smiles": "CNC1CCN(c2nc3c(c(Nc4ccc(C(F)(F)F)cc4)n2)CCN(c2ncccc2C(F)(F)F)CC3)C1", "note": "(stereo unspecified)", "solubility thermodynamic": 233}
{"smiles": "CN1CCCCC1CNc1nc2c(c(Nc3ccc(C(F)(F)F)cc3)n1)CCN(c1ncccc1C(F)(F)F)CC2", "note": "(stereo unspecified)", "solubility thermodynamic": 254}
{"smiles": "COCCN1CCN(c2nc3c(c(Nc4ccc(C(F)(F)F)cc4)n2)CCN(c2ncccc2C(F)(F)F)CC3)CC1", "solubility thermodynamic": 6}
{"test_system": "not listed separately", "test": "Aqueous equilibrium solubility of compound in phosphate buffer at pH 2", "assay_type": "physicochemical", "units": {"solubility thermodynamic": "µg/mL"}}
{"smiles": "CN1CCN(c2nc3c(c(Nc4ccc(C(F)(F)F)cc4)n2)CCN(c2ncccc2C(F)(F)F)CC3)CC1", "solubility thermodynamic": "> 221"}
{"smiles": "CN(C)CCN1CCN(c2nc3c(c(Nc4ccc(C(F)(F)F)cc4)n2)CCN(c2ncccc2C(F)(F)F)CC3)CC1", "solubility thermodynamic": "> 243"}
{"smiles": "CN(c1nc2c(c(Nc3ccc(C(F)(F)F)cc3)n1)CCN(c1ncccc1C(F)(F)F)CC2)C1CCCNC1", "note": "(stereo unspecified)", "solubility thermodynamic": "> 241"}
{"smiles": "CN(C)CCN(C)c1nc2c(c(Nc3ccc(C(F)(F)F)cc3)n1)CCN(c1ncccc1C(F)(F)F)CC2", "solubility thermodynamic": "> 221"}
{"smiles": "FC(F)(F)c1ccc(Nc2nc(NC3CCCNC3)nc3c2CCN(c2ncccc2C(F)(F)F)CC3)cc1", "note": "(stereo unspecified)", "solubility thermodynamic": "> 235"}
{"smiles": "CNC1CCN(c2nc3c(c(Nc4ccc(C(F)(F)F)cc4)n2)CCN(c2ncccc2C(F)(F)F)CC3)C1", "note": "(stereo unspecified)", "solubility thermodynamic": "> 220"}
{"smiles": "CN1CCCCC1CNc1nc2c(c(Nc3ccc(C(F)(F)F)cc3)n1)CCN(c1ncccc1C(F)(F)F)CC2", "note": "(stereo unspecified)", "solubility thermodynamic": "> 277"}
{"smiles": "COCCN1CCN(c2nc3c(c(Nc4ccc(C(F)(F)F)cc4)n2)CCN(c2ncccc2C(F)(F)F)CC3)CC1", "solubility thermodynamic": "> 238"}
